Test [1] has as its system ATF4 expression, HEK293T cells carrying the ATF4 luciferase reporter. The test is described as follows: ATF4 expression inhibition assay (ATF4 luciferase reporter). Type of test: cell-based. Particulars: Homo sapiens, HEK-293T, 100 nM thapsigargin, 3 hours. As for the experimental part:
The ATF4 reporter was prepared by fusing the human full length 5′UTR of ATF4 (NCBI Accession No. BC022088.2) upstream of the firefly luciferase coding sequence lacking the initiator methionine. The fused sequence was cloned into pLenti-EFla-C-Myc-DDK-IRES-Puro cloning vector (Origen #PS100085) using standard methods. Virus production was carried out by using Lenti-X™ Packaging Single Shots Protocol (Clonetech #631276). Viral particles were used to transduce HEK293T cells (ATCC #CRL-3216, ATCC Manassas, Va.), which were subsequently selected with puromycin to generate stable cell line. Cells were maintained at 37° C. and 5% CO2 in DMEM-F12 (Hyclone #SH30023.02) supplemented with 10% heat-inactivated fetal bovine serum (Gibco #16000-044), 2 mM L-glutamine (Gibco #25030-081), 100 U/ml penicillin, and 100 μg/ml streptomycin (Gibco #^15140-122).
HEK293T cells carrying the ATF4 luciferase reporter were plated on 96-well plates (Nunc) at 10,000 cells per well. Cells were treated two days after seeding with 100 nM thapsigargin (Tg) (Sigma-Aldrich #T9033) in the presence of different concentrations of selected compounds ranging from 1 nM to 10 μM. Cells without treatment or cells treated with Tg alone were used as controls. Assay plates containing cells were incubated for 3 hours at 37° C.
Luciferase reactions were performed using Luciferase Assay System (Promega #E1501) as specified by the manufacturer. Luminescence was read with an integration time of 1 s and a gain of 110 using a Cytation-5 multi-mode microplate reader (BioTek). Relative luminescence units were normalized to Tg treatment (0% inhibition) and untreated cells (100% inhibition) and the percentage of ATF4 inhibition was calculated.
Accordingly, inhibition of ATF4 expression as a result of the test compound indicates suppression of the ISR pathway.

Test [2] relates to Chinese hamster ovary (CHO) cells. The test is described as follows: Protein synthesis assay (puromycin incorporation, western blot). The class given is cell-based. Particulars: 2 hours, media alone = 100%; for activity at 1 µM: Cricetulus griseus, unstressed CHO cells (without Tg), 1 μM test compound, read-out: % Protein synthesis relative to untreated (1 μM test compound); for % Recovery of protein synthesis (1 μM test compound): stressed CHO cells, 300 nM Tg plus 1 μM test compound, Tg alone = 0%. As for the experimental part: Chinese hamster ovary (CHO) cells were maintained at 37° C. and 5% CO2 in Dulbecco's Modified Eagle's Media (DMEM) supplemented with 10% fetal bovine serum, 2 mM L-glutamine, 100 U/ml penicillin, and 100 μg/ml streptomycin. After reaching 80% of confluence, cells were detached and seeded on 6 well plates in complete media, allowed to recover overnight and treated for 2 hours with 1 μM of the test compound (to assess protein synthesis levels in unstressed condition), or for 2 hours with 300 nM Tg in the presence of 1 μM of the test compound (to assess the recovery of protein synthesis in a stressed condition). Cells with Tg alone were used as controls.
After the 2 hours treatments, media were replaced by adding 10 μg/ml puromycin (Sigma Aldrich #P8833) in complete media for 30 min. Media were removed and cells were lysed with SDS-PAGE lysis buffer. Lysates were transferred to 1.5 ml tubes and sonicated for 3 min and total protein amount were quantified using BCA Protein Assay Kit (Pierce). Equal amount of protein (30 μg) was loaded on SDS-PAGE gels. Proteins were transferred onto […] PVDF membranes (BioRad) and probed with primary antibodies diluted in Tris-buffered saline supplemented with 0.1% Tween 20 (Merck #S6996184 505) and 3% bovine serum albumin (Rockland #BSA-50).
Puromycin (12D10) (Merck #MABE343) and j-actin (Sigma Aldrich #A5441) antibodies were used as primary antibody. A HRP-conjugated secondary antibody (Rockland) was employed to detect immune-reactive bands using enhanced chemiluminescence (ECL Western Blotting Substrate, Pierce). Quantification of protein bands was done by densitometry using ImageJ software.
Percent increase of protein synthesis in unstressed cells (without Tg treatment) in the presence of media alone or certain test compounds is shown in Table 3. The percentage levels were normalized to the media alone condition, which correspond to 100% protein synthesis.
Percent recovery of protein synthesis in stressed cells (with Tg treatment) due to the test compounds at 1 μM is also shown in Table 3. The levels were normalized to the media alone and Tg alone conditions, which correspond to 100% and 0% respectively.

The term IC50 denotes the concentration that inhibits the measured activity by half. High values mean a need for much substance, low ones inhibition by little substance.

In test [1], `O=C(COc1ccc(Cl)c(F)c1)NCC1CCN(CC(O)COc2ccc(Cl)c(F)c2)CC1` (stereo not drawn) [Compound 5, 2-(4-chloro-3-fluorophenoxy)-N-((1-(3-(4-chloro-3-fluorophenoxy)-2-hydroxypropyl)piperidin-4-yl)methyl)acetamide] showed an IC50 above 1000 nM. In test [2], the activity at 1 µM stood at 82.5% and the “% Recovery of protein synthesis (1 μM test compound)” value (“% Recovery of protein synthesis” below) turned out to be 71.9%.
On the same counts, the results for `O=C(COc1ccc(Cl)c(F)c1)NC[C@H]1CC[C@H](NCC(O)COc2ccc(Cl)c(F)c2)CC1` (stereo partly drawn) [Compound 14, trans-2-(4-chloro-3-fluorophenoxy)-N-((4-((3-(4-chloro-3-fluorophenoxy)-2-hydroxypropyl)amino)cyclohexyl)methyl)acetamide] are above 10000 nM, 150% and 53.2%.
On the same counts, the results for `O=C(COc1ccc(Cl)c(F)c1)N[C@H]1CC[C@H](NC(=O)c2nc3ccc(Cl)cc3[nH]2)CC1` [Compound 3, trans-6-chloro-N-(4-(2-(4-chloro-3-fluorophenoxy)acetamido)cyclohexyl)-1H-benzo[d]imidazole-2-carboxamide] are below 1000 nM, 120% and 109.9%.
On the same counts, the results for `O=C(NC1CCN(CC(O)COc2ccc(Cl)c(F)c2)CC1)c1nc2ccc(Cl)cc2[nH]1` (stereo not drawn) [Compound 4, 6-chloro-N-(1-(3-(4-chloro-3-fluorophenoxy)-2-hydroxypropyl)piperidin-4-yl)-1H-benzo[d]imidazole-2-carboxamide] are below 1000 nM, 164% and 246.6%.
As to `O=C(NCC1CCN(CC(O)COc2ccc(Cl)c(F)c2)CC1)c1cc2cc(Cl)ccc2o1` (stereo not drawn) [Compound 6, 5-chloro-N-((1-(3-(4-chloro-3-fluorophenoxy)-2-hydroxypropyl)piperidin-4-yl)methyl)benzofuran-2-carboxamide], in test [1], the half-maximal inhibitory concentration (IC50) is below 1000 nM. For the same compound, the activity at 1 µM in test [2] worked out at 179%.
In test [1], `O=C(COc1ccc(Cl)cc1)N[C@H]1CC[C@H](NC(=O)C2CNc3ccc(Cl)cc3O2)CC1` (stereo partly drawn) [Compound 94, trans-7-chloro-N-(4-(2-(4-chlorophenoxy)acetamido)cyclohexyl)-3,4-dihydro-2H-benzo[b] [1,4]oxazine-2-carboxamide] had an IC50 of 35.8 nM. In test [2], the activity at 1 µM came out at 103% and the “% Recovery of protein synthesis” value turned out to be 58.4%.
On the same counts, the results for `CC(C)(C(=O)NC[C@H]1CC[C@H](NC(=O)COc2ccc(Cl)c(F)c2)CC1)c1ccc(Cl)cc1` [Compound 32, trans-N-((4-(2-(4-chloro-3-fluorophenoxy)acetamido)cyclohexyl)methyl)-2-(4-chlorophenyl)-2-methylpropanamide] are above 1000 nM, 162% and 69.7%.
On the same counts, the results for `O=C(COc1ccc(Cl)c(F)c1)NC[C@H]1CC[C@H](NC(=O)c2ccc3cc(Cl)ccc3n2)CC1` [Compound 12, trans-6-chloro-N-(4-((2-(4-chloro-3-fluorophenoxy)acetamido)methyl)cyclohexyl)quinoline-2-carboxamide] are 120 nM, 200% and 187.4%.
`O=C(COc1ccc(Cl)c(F)c1)N[C@H]1CC[C@H](CNC(=O)c2cnc(C(F)F)cn2)CC1` [Compound 21, trans-N-((4-(2-(4-chloro-3-fluorophenoxy)acetamido)cyclohexyl)methyl)-5-(difluoromethyl)pyrazine-2-carboxamide] displayed an IC50 in test [1] of 17.8 nM. In test [2], the activity at 1 µM is 67.8% and the “% Recovery of protein synthesis” value amounted to 11.4%.
`NC(=O)c1cc(Cl)ccc1OCC(=O)N[C@H]1CC[C@H](NC(=O)COc2ccc(Cl)cc2)CC1` [Compound 92] gave an IC50 in test [1] of 52.2 nM. Moreover, the activity at 1 µM in test [2] was 79.7%.
With `O=C(NC[C@H]1CC[C@H](NCCOc2ccc(Cl)c(F)c2)CC1)c1cc2cc(Cl)ccc2o1` [Compound 27, trans-5-chloro-N-((4-((2-(4-chloro-3-fluorophenoxy)ethyl)amino)cyclohexyl)methyl)benzofuran-2-carboxamide], the IC50 in test [1] was below 1000 nM. Further, in test [2], the activity at 1 µM is 126% and the “% Recovery of protein synthesis” value came to 38.1%.
On the same counts, the results for `CN1CC(C(=O)N[C@H]2CC[C@H](NC(=O)COc3ccc(Cl)cc3)CC2)Oc2ccc(Cl)cc21` (stereo partly drawn) [Compound 83, trans-6-chloro-N-(4-(2-(4-chlorophenoxy)acetamido)cyclohexyl)-4-methyl-3,4-dihydro-2H-benzo[b][1,4]oxazine-2-carboxamide] are 19.3 nM, 148% and 98.4%.
Compound `O=C(COc1ccc(Cl)c(F)c1)N[C@H]1CC[C@H](CNC(=O)c2ccc3ccc(Cl)cc3n2)CC1` [Compound 24, trans-7-chloro-N-((4-(2-(4-chloro-3-fluorophenoxy)acetamido)cyclohexyl)methyl)quinoline-2-carboxamide] displayed an IC50 in test [1] above 1000 nM. For the same compound, in test [2], the activity at 1 µM stood at 138% and the “% Recovery of protein synthesis” value was determined as 49.1%.
In test [1], `Cc1cc(Cl)ccc1OCC(=O)N[C@H]1CC[C@H](NC(=O)COc2ccc(Cl)cc2)CC1` [Compound 91, trans-2-(4-chloro-2-methylphenoxy)-N-(4-(2-(4-chlorophenoxy)acetamido)cyclohexyl)acetamide] yielded a concentration for half-maximal inhibition (IC50) of 28.7 nM. Besides, the activity at 1 µM in test [2] is 94.8%.
`O=C(COc1ccc(Cl)c(F)c1)N[C@H]1CC[C@H](CNC(=O)c2cccc(Cl)c2)CC1` [Compound 22, trans-3-chloro-N-((4-(2-(4-chloro-3-fluorophenoxy)acetamido)cyclohexyl)methyl)benzamide] had an IC50 in test [1] of 10.9 nM. Also, in test [2], the activity at 1 µM was 83.3% and the “% Recovery of protein synthesis” value is given as 54.6%.
Taken in the same sequence, the figures for `COc1ccc2oc(C(=O)NC[C@H]3CC[C@H](NC(=O)COc4ccc(Cl)c(F)c4)CC3)cc2c1` [Compound 16, trans-N-((4-(2-(4-chloro-3-fluorophenoxy)acetamido)cyclohexyl)methyl)-5-methoxybenzofuran-2-carboxamide] were 5.25 nM, 147% and 102.4%.
On the same counts, the results for `O=C(N[C@H]1CC[C@H](NCC(O)COc2ccc(Cl)cc2)CC1)c1nc2ccc(Cl)cc2[nH]1` (stereo partly drawn) [Compound 8, trans-6-chloro-N-(4-((3-(4-chlorophenoxy)-2-hydroxypropyl)amino)cyclohexyl)-1H-benzo[d]imidazole-2-carboxamide] are above 1000 nM, 175% and 128.3%.
Taken in the same sequence, the figures for `O=C(NCC1CCN(NC(=O)c2cc3cc(Cl)ccc3o2)CC1)c1cc2cc(Cl)ccc2o1` [Compound 97, 5-chloro-N-(4-((5-chlorobenzofuran-2-carboxamido)methyl)piperidin-1-yl)benzofuran-2-carboxamide] were 0.59 nM, 211% and 249.6%.

These data come from patent publication US20210317102A1, “INHIBITORS OF INTEGRATED STRESS RESPONSE PATHWAY” (Praxis Biotech LLC, priority 2019, published 2021).
